Experimental data reported in PubChem BioAssay AID192 (DTP/NCI, 2004).
“And” between values parts separate entries of the source, which are not always exact repeats. Equal values may be shown once. Toxic doses and inconclusive results are not listed.

Tested on: BDF1 mice, B16 melanoma ip, median survival T/C
Assay: NCI In Vivo Anticancer Drug Screen. Data for tumor model B16 Melanoma (intraperitoneal) in B6D2F1 (BDF1) mice
Conditions: endpoint: median survival time, higher = longer survival
In short: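 In this screen, activity was judged from survival or tumor size in treated versus vehicle-treated tumor-bearing mice, reported as T/C.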

[1] = dose: 25.0 mg/kg/injection, schedule: Q01DX009 (ip), vehicle: saline with Tween-80
[2] = dose: 50.0 mg/kg/injection, schedule: Q01DX009 (ip), vehicle: saline with Tween-80
[3] = dose: 100.0 mg/kg/injection, schedule: Q01DX009 (ip), vehicle: saline with Tween-80
[4] = dose: 100.0 mg/kg/injection, schedule: Q04DX003 (ip), vehicle: Klucel (hydroxypropylcellulose) (HPC)
[5] = dose: 400.0 mg/kg/injection, schedule: Q04DX003 (ip), vehicle: Klucel (hydroxypropylcellulose) (HPC)
[6] = dose: 3.13 mg/kg/injection, schedule: Q01DX009 (ip), vehicle: water
[7] = dose: 6.25 mg/kg/injection, schedule: Q01DX009 (ip), vehicle: saline with Tween-80
[8] = dose: 12.5 mg/kg/injection, schedule: Q01DX009 (ip), vehicle: saline with Tween-80
[9] = dose: 100.0 mg/kg/injection, schedule: Q04DX003 (ip), vehicle: saline with Tween-80
[10] = dose: 200.0 mg/kg/injection, schedule: Q01DX009 (ip), vehicle: saline with Tween-80
[11] = dose: 200.0 mg/kg/injection, schedule: Q04DX003 (ip), vehicle: saline with Tween-80
[12] = dose: 400.0 mg/kg/injection, schedule: Q01DX009 (ip), vehicle: saline with Tween-80
[13] = dose: 50.0 mg/kg/injection, schedule: Q01DX009 (ip), vehicle: saline
[14] = dose: 100.0 mg/kg/injection, schedule: Q01DX009 (ip), vehicle: saline
[15] = dose: 200.0 mg/kg/injection, schedule: Q01DX009 (ip), vehicle: saline
[16] = dose: 3.12 mg/kg/injection, schedule: Q01DX009 (ip), vehicle: saline
[17] = dose: 6.25 mg/kg/injection, schedule: Q01DX009 (ip), vehicle: saline
[18] = dose: 12.5 mg/kg/injection, schedule: Q01DX009 (ip), vehicle: saline
[19] = dose: 100.0 mg/kg/injection, schedule: Q01DX009 (ip), vehicle: Klucel (hydroxypropylcellulose) (HPC)
[20] = dose: 200.0 mg/kg/injection, schedule: Q01DX009 (ip), vehicle: Klucel (hydroxypropylcellulose) (HPC)
[21] = dose: 400.0 mg/kg/injection, schedule: Q01DX009 (ip), vehicle: Klucel (hydroxypropylcellulose) (HPC)
[22] = dose: 25.0 mg/kg/injection, schedule: Q01DX009 (ip), vehicle: Klucel (hydroxypropylcellulose) (HPC)
[23] = dose: 50.0 mg/kg/injection, schedule: Q01DX009 (ip), vehicle: Klucel (hydroxypropylcellulose) (HPC)
[24] = dose: 25.0 mg/kg/injection, schedule: Q01DX009 (ip), vehicle: water
[25] = dose: 12.5 mg/kg/injection, schedule: Q01DX009 (ip), vehicle: Klucel (hydroxypropylcellulose) (HPC)

SMILES: COc1ccc2c(c1)C/C(=N\O)C2=O
- T/C [1]: 99 % of control
- T/C [2]: 114 % of control
- T/C [3]: 92 % of control

SMILES: c1ccc(CN=C(c2ccccc2)c2ccccc2)cc1
- T/C [4]: 100 % of control
- T/C (dose: 200.0 mg/kg/injection, schedule: Q04DX003 (ip), vehicle: Klucel (hydroxypropylcellulose) (HPC)): 95 % of control
- T/C [5]: 100 % of control

SMILES: CCCCCCCCCCCCCCCC(=O)N(CCCN(CC)CC)C(C)CCCN(CC)CC (stereo unspecified)
- T/C (dose: 0.78 mg/kg/injection, schedule: Q01DX009 (ip), vehicle: water): 103 % of control
- T/C (dose: 1.56 mg/kg/injection, schedule: Q01DX009 (ip), vehicle: Klucel (hydroxypropylcellulose) (HPC)): 110 % of control
- T/C (dose: 1.56 mg/kg/injection, schedule: Q01DX009 (ip), vehicle: water): 104 % of control
- T/C (dose: 3.13 mg/kg/injection, schedule: Q01DX009 (ip), vehicle: Klucel (hydroxypropylcellulose) (HPC)): 102 % of control
- T/C [6]: 104 % of control
- T/C (dose: 6.25 mg/kg/injection, schedule: Q01DX009 (ip), vehicle: Klucel (hydroxypropylcellulose) (HPC)): 86 % of control and 97 % of control
- T/C (dose: 6.25 mg/kg/injection, schedule: Q01DX009 (ip), vehicle: water): 90 % of control

SMILES: C1=Cc2ccccc2/C1=C/c1cccc(/C=C2\C=Cc3ccccc32)c1
- T/C [7]: 100 % of control
- T/C [8]: 86 % of control

SMILES: CCOC(=O)C(=CN1CCOCC1)C(=O)OCC
- T/C [3]: 90 % of control
- T/C [9]: 100 % of control
- T/C [10]: 98 % of control
- T/C [11]: 102 % of control
- T/C [12]: 98 % of control
- T/C (dose: 400.0 mg/kg/injection, schedule: Q04DX003 (ip), vehicle: saline with Tween-80): 109 % of control

SMILES: N/C=N/O
- T/C (dose: 25.0 mg/kg/injection, schedule: Q01DX009 (ip), vehicle: saline): 104 % of control
- T/C [13]: 111 % of control
- T/C [14]: 109 % of control
- T/C [15]: 117 % of control

SMILES: CCC1OC2(C)C(O)C(/C=C/C=C/C=C/c3oc(=O)cc(OC)c3C)OC1(C)C2OC(C)=O (stereo unspecified)
- T/C (dose: 0.5 mg/kg/injection, schedule: Q01DX009 (ip), vehicle: Klucel (hydroxypropylcellulose) (HPC)): 94 % of control
- T/C (dose: 1.0 mg/kg/injection, schedule: Q01DX009 (ip), vehicle: Klucel (hydroxypropylcellulose) (HPC)): 93 % of control
- T/C (dose: 2.0 mg/kg/injection, schedule: Q01DX009 (ip), vehicle: Klucel (hydroxypropylcellulose) (HPC)): 94 % of control

SMILES: CN(C)CCOC(c1ccccc1)c1ccccc1
- T/C [16]: 86 % of control
- T/C [17]: 100 % of control
- T/C [18]: 100 % of control

SMILES: C/C(=N\O)C(=O)c1ccccc1
- T/C [19]: 100 % of control
- T/C [20]: 100 % of control
- T/C [21]: 103 % of control

SMILES: O=C1NC(=O)c2cccc3cccc1c23
- T/C [9]: 94 % of control

SMILES: CCOC(=O)NC(C)(C)CN(CCO)C(=O)OCC
- T/C [4]: 102 % of control
- T/C [5]: 100 % of control

SMILES: O=[N+]([O-])c1ccc(NCCO)c([N+](=O)[O-])c1
- T/C [2]: 100 % of control
- T/C [3]: 100 % of control
- T/C [9]: 94 % of control
- T/C [10]: 92 % of control
- T/C [11]: 89 % of control

SMILES: COC(=O)c1ccccc1NC(c1ccccn1)c1ccc2cccnc2c1O (stereo unspecified)
- T/C [22]: 94 % of control
- T/C [23]: 108 % of control
- T/C [19]: 98 % of control

SMILES: C#CC[N+]12CN3CN(CN(C3)C1)C2
- T/C [13]: 104 % of control
- T/C [14]: 100 % of control
- T/C [15]: 107 % of control

SMILES: COc1cccc(C(=O)c2ccncc2C)c1OC
- T/C [24]: 98 % of control
- T/C (dose: 50.0 mg/kg/injection, schedule: Q01DX009 (ip), vehicle: water): 96 % of control
- T/C (dose: 100.0 mg/kg/injection, schedule: Q01DX009 (ip), vehicle: water): 96 % of control

SMILES: O=C1C=CC(=O)N1c1ccc(Cl)cc1
- T/C (dose: 1.25 mg/kg/injection, schedule: Q01DX009 (ip), vehicle: Klucel (hydroxypropylcellulose) (HPC)): 97 % of control

SMILES: CNC(=O)Nc1nccs1
- T/C [1]: 97 % of control
- T/C [2]: 95 % of control
- T/C [3]: 106 % of control
- T/C [10]: 91 % of control

SMILES: CCCCCCCCCCCCCC(C)NCc1ccccc1 (stereo unspecified)
- T/C (dose: 3.13 mg/kg/injection, schedule: Q01DX009 (ip), vehicle: saline with Tween-80): 100 % of control
- T/C [7]: 100 % of control
- T/C [8]: 100 % of control

SMILES: COc1ccc2c(oc(=O)c3c(Cl)nc(C)c(C)c32)c1OC
- T/C [22]: 105 % of control
- T/C [23]: 98 % of control
- T/C [19]: 97 % of control
- T/C [20]: 94 % of control

SMILES: O=C(OC1COC(n2c(=O)oc3ccc(F)cc32)C(OC(=O)c2ccccc2)C1OC(=O)c1ccccc1)c1ccccc1 (stereo unspecified)
- T/C [2]: 93 % of control
- T/C [19]: 89 % of control
- T/C [3]: 92 % of control
- T/C [20]: 86 % of control
- T/C [10]: 107 % of control
- T/C [12]: 90 % of control

SMILES: O=C1OC(c2ccc([N+](=O)[O-])cc2)=N/C1=C\c1ccc(Cl)cc1
- T/C [22]: 102 % of control
- T/C [23]: 86 % of control

SMILES: CC(C)CC(C)(c1ccc(O)cc1)c1ccc(O)cc1
- T/C [3]: 98 % of control
- T/C [10]: 98 % of control

SMILES: Nc1cccc2c1nc(NCCO)c1ccccc12
- T/C [2]: 94 % of control
- T/C [3]: 102 % of control
- T/C [10]: 94 % of control
- T/C [12]: 102 % of control

SMILES: COCCOC(=O)CCCCC(=O)OCCOC
- T/C [14]: 118 % of control
- T/C [15]: 106 % of control
- T/C (dose: 400.0 mg/kg/injection, schedule: Q01DX009 (ip), vehicle: saline): 114 % of control

SMILES: O=C1C(N2CCCC2)=C(N2CC2)C(=O)C(N2CCCC2)=C1N1CC1
- T/C (dose: 0.25 mg/kg/injection, schedule: Q01DX009 (ip), vehicle: saline): 100 % of control
- T/C (dose: 0.5 mg/kg/injection, schedule: Q01DX009 (ip), vehicle: saline): 114 % of control
- T/C (dose: 1.0 mg/kg/injection, schedule: Q01DX009 (ip), vehicle: saline): 111 % of control
- T/C (dose: 2.0 mg/kg/injection, schedule: Q01DX009 (ip), vehicle: saline): 118 % of control

SMILES: COc1cccc2c1C(=O)c1c(O)c3c(c(O)c1C2=O)C[C@@](O)(/C(C)=N\O)C[C@@H]3OC1CC(N)C(O)C(C)O1 (stereo partly specified)
- T/C [6]: 115 % of control
- T/C (dose: 6.25 mg/kg/injection, schedule: Q01DX001 (ip), vehicle: water): 91 % of control
- T/C (dose: 12.5 mg/kg/injection, schedule: Q01DX001 (ip), vehicle: water): 213 % of control
- T/C (dose: 12.5 mg/kg/injection, schedule: Q01DX009 (ip), vehicle: water): 187 % of control
- T/C (dose: 25.0 mg/kg/injection, schedule: Q01DX001 (ip), vehicle: water): 207 % of control
- T/C (dose: 50.0 mg/kg/injection, schedule: Q01DX001 (ip), vehicle: water): 158 % of control

SMILES: O=[N+]([O-])c1ccc(C(O)C=C(C(F)(F)F)C(F)(F)F)cc1 (stereo unspecified)
- T/C [25]: 93 % of control
- T/C [22]: 89 % of control

SMILES: Cc1cnc2c(=O)[nH]c(=O)[nH]c2n1
- T/C [19]: 90 % of control
- T/C [21]: 93 % of control

SMILES: CN1CCCCC1CCN1c2ccccc2Sc2ccc(Br)cc21 (stereo unspecified)
- T/C (dose: 0.78 mg/kg/injection, schedule: Q01DX009 (ip), vehicle: saline): 109 % of control
- T/C [16]: 105 % of control
- T/C [17]: 107 % of control
- T/C [18]: 96 % of control

SMILES: CCN(CC)CCCC(C)Nc1c2ccc(Cl)cc2nc2cc(Cl)ccc12 (stereo unspecified)
- T/C [25]: 106 % of control
- T/C [22]: 106 % of control
- T/C [23]: 122 % of control

SMILES: CN(C(N)=O)C1CCCC1
- T/C [3]: 114 % of control
- T/C [10]: 100 % of control
- T/C [12]: 93 % of control

SMILES: CCCC[P+](CCCC)(CCCC)C(C)C
- T/C [8]: 106 % of control
- T/C [1]: 104 % of control

SMILES: O=NNc1cnccn1
- T/C [24]: 164 % of control

SMILES: CNC(Cc1ccccc1)c1ccc(OC)cc1 (stereo unspecified)
- T/C [23]: 96 % of control
- T/C [19]: 96 % of control

SMILES: O=[N+]([O-])c1ccc2[nH]c(=S)sc2c1
- T/C [22]: 97 % of control
- T/C [23]: 100 % of control
